Converted amounts (≈) assume the structure as drawn. Where two headings read alike, the source gives them in different places.
Tests used:
[1] = formed cation, cited from earlier work; for Volume: derived from the literature
[2] = Solubility in water of formula (I) compounds in the presence of different bases (Example 2); settings: for relative solubility, 1,1,3,3-Tetramethyl guanidine: 1.2 mol/L 1,1,3,3-Tetramethyl guanidine; for relative solubility, (NH3)aq: 1.2 mol/L (NH3)aq; for relative solubility, CsOH: 1.2 mol/L CsOH; for relative solubility, KOH: 1.2 mol/L KOH; for relative solubility, LiOH: 1.2 mol/L LiOH; for relative solubility, N-Ethyl pyrrolidine: 1.2 mol/L N-Ethyl pyrrolidine; for relative solubility, NEt3: 1.2 mol/L NEt3; for relative solubility, NMe4OH: 1.2 mol/L NMe4OH; for relative solubility, PBu4OH: 1.2 mol/L PBu4OH; for relative solubility, RbOH: 1.2 mol/L RbOH; for solubility: aqueous NaOH solution, aqueous buffer
[3] = conjugate acid of the base, cited from earlier work
physchem [4] = settings: aqueous buffer
[5] = Chemical compatibility of bases with the posolyte: SOC of ferricyanide solution by linear voltammetry; type: physicochemical; settings: 0.5 mol/L ferricyanide, 0.1 mol/L compound, pH about 13, 7 days in sealed flask
physchem [6] = settings: aqueous buffer; remark: listed apart in the source
[7] = relative to solubility in 1 mol/L NaOH
[8] = footnote b, hexa-coordinate cation within a crystal (Shannon 1976)
[9] = literature (Charlot) or predicted by COSMO-RS
[10] = footnote a (Hall, J. Amer. Chem. Soc 1957)

N [Ammonia]
Volume [1]: 13.6 Å^3
Radius ([1]; footnote c (Sidey 2016)): 1.48^c Å

O=C(O)c1ccc2c(c1)C(=O)c1ccccc1C2=O
relative solubility, 1,1,3,3-Tetramethyl guanidine [2, 7]: ×4100
relative solubility, (NH3)aq [2, 7]: ×50
relative solubility, CsOH [2, 7]: ×70
relative solubility, KOH [2, 7]: ×10
relative solubility, LiOH [2, 7]: ×14
relative solubility, N-Ethyl pyrrolidine [2, 7]: ×2000
relative solubility, NEt3 [2, 7]: ×2000
relative solubility, NMe3 ([2]; 1.2 mol/L NMe3, relative to solubility in 1 mol/L NaOH): ×2000
relative solubility, NMe4OH [2, 7]: ×3700
relative solubility, PBu4OH [2, 7]: ×4100
relative solubility, RbOH [2, 7]: ×150
solubility [2]: 0.25 mM

[Na+].[OH-] [Sodium hydroxide]
Volume [1]: 4.4 Å^3
Radius [1, 8]: 1.02^b Å

[Li+].[OH-] [Lithium hydroxide]
Volume [1]: 1.8 Å^3
Radius [1, 8]: 0.76^b Å

[K+].[OH-] [Potassium hydroxide]
Volume [1]: 11.0 Å^3
Radius [1, 8]: 1.38^b Å

CCCCCCCCCCCC[N+](C)(C)CCCCCCCCCCCC [Didodecyl, dimethyl ammonium, didodecyldimethylammonium hydroxide]
pKa [3, 9]: 14

C[N+]1(C)CCCC1.[OH-] [N,N-Dimethyl pyrrolidinium, N,N-dimethylpyrrolidinium hydroxide]
pKa [3, 9]: 14

O=C1c2ccccc2C(=O)c2c1ccc(O)c2O [alizarin]
solubility (physchem [4]): 23 mM (≈ 5520 µg/mL)

CCN1CCCC1 [N-Ethyl pyrrolidine, N-ethylpyrrolidine]
pKa [3, 9]: 10.7

C1CCC2=NCCCN2CC1 [DBU, 1,8-diazabicyclo[5.4.0]undec-7-ene]
pKa [3, 9]: 13.5

C[n+]1ccccc1.[OH-] [N-Methyl pyridinium, N-methylpyridinium hydroxide]
pKa [3, 9]: 14

CCCCCCCCCCCCCCCC[N+](C)(C)C [Trimethyl, cetyl ammonium, trimethyl cetylammonium hydroxide]
pKa [3, 9]: 14

[Cs+].[OH-] [Caesium hydroxide]
Volume [1]: 19.5 Å^3
Radius [1, 8]: 1.67^b Å

O=C(O)[C@@H]1CCCN1 [proline]
SOC after a contact time of 7 days with ferricyanide [5]: 77.7%

[OH-].[Rb+] [Rubidium hydroxide]
Volume [1]: 14.7 Å^3
Radius [1, 8]: 1.52^b Å

O=C1c2ccccc2C(=O)c2c(O)ccc(O)c21 [drawing 31, quinizarin]
relative solubility, 1,1,3,3-Tetramethyl guanidine [2, 7]: ×82
relative solubility, (NH3)aq [2, 7]: ×3
relative solubility, CsOH [2, 7]: ×32
relative solubility, DBU ([2]; 1.2 mol/L DBU, relative to solubility in 1 mol/L NaOH): ×234
relative solubility, KOH [2, 7]: ×8
relative solubility, LiOH [2, 7]: ×0.03
relative solubility, N-Ethyl pyrrolidine [2, 7]: ×13
relative solubility, N-Methyl pyrrolidine ([2]; 1.2 mol/L N-Methyl pyrrolidine, relative to solubility in 1 mol/L NaOH): ×7
relative solubility, NEt3 [2, 7]: ×3
relative solubility, NMe4OH [2, 7]: ×213
relative solubility, PBu4OH [2, 7]: ×211
relative solubility, RbOH [2, 7]: ×16
relative solubility, Trimethyl, benzyl ammonium ([2]; 1.2 mol/L Trimethyl, benzyl ammonium, relative to solubility in 1 mol/L NaOH): ×255
solubility [2]: 3.8 mM

CCN(C)CC [Methyl, diethyl amine, diethylmethylamine]
pKa [3, 10]: 10.3^a

CCN1CCCCC1 [N-Ethyl piperidine, N-ethylpiperidine]
pKa [3, 10]: 10.4^a

CN(C)C(=N)N(C)C [1,1,3,3-Tetramethyl guanidine, 1,1,3,3-tetramethylguanidine]
pKa [3, 9]: 13.0

C[N+]1(C)CCCCC1.[OH-] [N,N-Dimethyl piperidinium, N,N-dimethylpiperidinium hydroxide]
pKa [3, 9]: 14

C[N+](C)(C)CCO.[OH-] [CholineOH, choline hydroxide]
SOC after a contact time of 7 days with ferricyanide [5]: 82.7%

C[N+](C)(C)Cc1ccccc1.[OH-] [Tetramethyl, benzyl ammonium, trimethyl benzylammonium hydroxide]
pKa [3, 9]: 14

C[N+](C)(C)C [Tetramethyl ammonium, tetramethylammonium hydroxide]
pKa [3, 9]: 14

O=C1c2ccccc2C(=O)c2c(O)ccc(O)c21 [quinizarin]
solubility (physchem [6]): 31 mM (≈ 7450 µg/mL)

CCN(C)C [Dimethyl, ethyl amine, ethyldimethylamine]
pKa [3, 10]: 10.0^a

CN1CCCC1 [N-Methyl pyrrolidine, N-methylpyrrolidine]
pKa [3, 10]: 10.5^a
